Patent publication US20180327367A1, “MACROCYCLIC BROAD SPECTRUM ANTIBIOTICS” (priority 2015, published 2018)
In brackets after ≈: the same amount, converted by molar mass. Like-named read-outs stand apart in the source and are kept apart here.

Assays:
[1] = tested on: Escherichia coli ATCC 25922; assay: Minimum inhibitory concentration, broth micro-dilution (CLSI), E. coli; format: cell-based; details: Escherichia coli, ATCC25922, 22 h, read-out: MIC (μg/mL) E. coli
[2] = tested on: Escherichia coli MC4100 harboring the IMP4213 (E. coli IMP); assay: microbe, parasite or virus in culture; format: cell-based; details: Escherichia coli, 22 h
In short: (§1)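 CLSI broth microdilution in cation-adjusted Mueller Hinton Broth with 0.002% Tween-80; inoculum final OD600 0.0005, 22 hours at 35° C. Ten 2-fold dilutions starting at 4 μg/mL (protocol 2) or 0.5 μg/mL (protocol 3).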

[3] = biological target: T1, SpsB (Staphylococcus aureus signal peptidase) (Staphylococcus aureus, UniProt P0A070); assay: cell-based; format: biochemical; details: SpsB IC50, whole-cell S. aureus (USA300 background, overexpressing SpsB) as SpsB source; fluorogenic peptide substrate, kinetic read 30 min
T1 construct: This assay uses a suspension of Staphylococcus aureus cells as a source of SpsB instead of recombinant SpsB protein; endogenous in cells; host or cells: S. aureus, USA300 background, overexpressing SpsB (whole-cell suspension from frozen pellets)
In short: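 Whole S. aureus cells (USA300, overexpressing SpsB) in PBS with MgCl2, CaCl2 and 0.1% Tween-80 served as enzyme source, mixed with 20 μM stock of (Dabcyl)βAla-KPAKAAE(Edans) substrate before use. Fluorescence (ex 340/em 490 nm) read kinetically over 30 min. IC50 from reaction rate versus 11-point inhibitor concentration.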

[4] = tested on: Methicillin Resistant Staphylococcus aureus strain USA 300, NRS384; assay: Minimum inhibitory concentration, broth micro-dilution (CLSI), S. aureus; format: cell-based; details: Staphylococcus aureus, MRSA / NRS 384 / USA300, 22 h, read-out: MIC (μg/mL) S. aureus
In short: as §1

[5] = E. coli ATCC 25922, 35° C., 22 hours
[6] = read-out: MIC (μg/mL) E. coli IMP, E. coli MC4100 IMP4213, increased outer-membrane permeability, 35° C., 22 hours
[7] = MRSA USA 300 NRS384, 35° C., 22 hours

T1 sequence (P0A070 whole entry): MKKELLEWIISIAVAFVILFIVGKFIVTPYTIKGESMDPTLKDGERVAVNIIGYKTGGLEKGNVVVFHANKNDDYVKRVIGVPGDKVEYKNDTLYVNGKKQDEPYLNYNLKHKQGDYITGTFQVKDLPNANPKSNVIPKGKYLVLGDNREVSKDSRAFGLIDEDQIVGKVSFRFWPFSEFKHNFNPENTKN

| Structure (SMILES) | MIC [1, 5] [µg/mL] | MIC [2, 6] [µg/mL] | IC50 [3] [nM] | MIC [4, 7] [µg/mL] | MIC [1] [µg/mL] | MIC ([2]; read-out: MIC (μg/mL) E. coli IMP) [µg/mL] | MIC [4] [µg/mL] |
| --- | --- | --- | --- | --- | --- | --- | --- |
| Cc1nc(-c2ccc(CC(C)C)cc2)sc1C(=O)N[C@@H](CCN)C(=O)N(C)[C@@H]1C(=O)N[C@@H](C)C(=O)N[C@H](C(=O)NCC#N)Cc2ccc(OCCN)c(c2)-c2cc1ccc2OCCN [Compound 166] | 0.5 (≈ 0.559 µM) | 0.016 (≈ 0.0179 µM) | 0.78 | 0.063 (≈ 0.0704 µM) | – | – | – |
| Cc1cc(-c2ccc(CC(C)C)cc2)cnc1C(=O)N[C@@H](CCN)C(=O)N(C)[C@@H]1C(=O)N[C@@H](C)C(=O)N[C@H](C(=O)NCC#N)Cc2ccc(OCCN)c(c2)-c2cc1ccc2OCCN [Compound 168] | 0.75 (≈ 0.844 µM) | 0.031 (≈ 0.0349 µM) | 0.8 | 0.063 (≈ 0.0709 µM) | – | – | – |
| Cc1nc(-c2ccc([Si](C)(C)C)cc2)ncc1C(=O)N[C@@H](CCN)C(=O)N(C)[C@@H]1C(=O)N[C@@H](C)C(=O)N[C@H](C(=O)NCC#N)Cc2ccc(OCCN)c(c2)-c2cc1ccc2OCCN [Compound 170] | – | – | 0.72 | – | 0.13 (≈ 0.143 µM) | 0.0085 (≈ 0.00938 µM) | 0.073 (≈ 0.0806 µM) |
| Cc1nc(-c2ccc(C(F)(F)F)cc2)ncc1C(=O)N[C@@H](CCN)C(=O)N(C)[C@@H]1C(=O)N[C@@H](C)C(=O)N[C@H](C(=O)NCC#N)Cc2ccc(OCCN)c(c2)-c2cc1ccc2OCCN [Compound 171] | 0.5 (≈ 0.554 µM) | 0.0078 (≈ 0.00865 µM) | 0.72 | 0.094 (≈ 0.104 µM) | – | – | – |
| CC(C)Cc1ccc(-c2ccc(C(=O)N[C@@H](CCN)C(=O)N(C)[C@@H]3C(=O)N[C@@H](C)C(=O)N[C@H](C(=O)NCC#N)Cc4ccc(OCCN)c(c4)-c4cc3ccc4OCCN)c(C(F)F)c2)cc1 [Compound 172] | 0.19 (≈ 0.206 µM) | 0.016 (≈ 0.0173 µM) | 1 | 0.094 (≈ 0.102 µM) | – | – | – |
| Cc1cc(-c2ncc(CC(C)C)cn2)ccc1C(=O)N[C@@H](CCN)C(=O)N(C)[C@@H]1C(=O)N[C@@H](C)C(=O)N[C@H](C(=O)NCC#N)Cc2ccc(OCCN)c(c2)-c2cc1ccc2OCCN [Compound 174] | 0.83 (≈ 0.933 µM) | 0.026 (≈ 0.0292 µM) | 0.91 | 0.17 (≈ 0.191 µM) | – | – | – |
| CCCCc1cnc(-c2ccc(C(=O)N[C@@H](CCN)C(=O)N(C)[C@@H]3C(=O)N[C@@H](C)C(=O)N[C@H](C(=O)NCC#N)Cc4ccc(OCCN)c(c4)-c4cc3ccc4OCCN)c(C)c2)nc1 [Compound 175] | 0.5 (≈ 0.562 µM) | 0.0078 (≈ 0.00876 µM) | 0.76 | 0.13 (≈ 0.146 µM) | – | – | – |
| CCc1cnc(-c2ccc(C(=O)N[C@@H](CCN)C(=O)N(C)[C@@H]3C(=O)N[C@@H](C)C(=O)N[C@H](C(=O)NCC#N)Cc4ccc(OCCN)c(c4)-c4cc3ccc4OCCN)c(C)c2)nc1 [Compound 176] | 2 (≈ 2.32 µM) | 0.13 (≈ 0.151 µM) | 2.6 | 1 (≈ 1.16 µM) | – | – | – |
| CC(C)CCc1ccc(-c2ccc(C(=O)N[C@@H](CCN)C(=O)N(C)[C@@H]3C(=O)N[C@@H](C)C(=O)N[C@H](C(=O)NCC#N)Cc4ccc(OCCN)c(c4)-c4cc3ccc4OCCN)cc2)cc1 [Compound 177] | 0.19 (≈ 0.214 µM) | 0.016 (≈ 0.018 µM) | 1.1 | 0.094 (≈ 0.106 µM) | – | – | – |
| Cc1cc(-c2cnc(CC(C)C)cn2)ccc1C(=O)N[C@@H](CCN)C(=O)N(C)[C@@H]1C(=O)N[C@@H](C)C(=O)N[C@H](C(=O)NCC#N)Cc2ccc(OCCN)c(c2)-c2cc1ccc2OCCN [Compound 178] | 1.5 (≈ 1.69 µM) | 0.039 (≈ 0.0438 µM) | 0.9 | 0.25 (≈ 0.281 µM) | – | – | – |
| Cc1cc(-c2cnc(CC(C)C)nc2)ccc1C(=O)N[C@@H](CCN)C(=O)N(C)[C@@H]1C(=O)N[C@@H](C)C(=O)N[C@H](C(=O)NCC#N)Cc2ccc(OCCN)c(c2)-c2cc1ccc2OCCN [Compound 179] | 0.19 (≈ 0.213 µM) | 0.0078 (≈ 0.00876 µM) | 1.8 | 0.047 (≈ 0.0528 µM) | – | – | – |
| CC(C)Cc1cnc(-c2ccc(C(=O)N[C@@H](CCN)C(=O)N(C)[C@@H]3C(=O)N[C@@H](C)C(=O)N[C@H](C(=O)NCC#N)Cc4ccc(OCCN)c(c4)-c4cc3ccc4OCCN)c3ccccc23)nc1 [Compound 182] | 12 (≈ 13 µM) | 0.13 (≈ 0.14 µM) | 3.2 | 0.5 (≈ 0.54 µM) | – | – | – |
| CCC(C)(C)c1ccc(-c2ncc(C(=O)N[C@@H](CCN)C(=O)N(C)[C@@H]3C(=O)N[C@@H](C)C(=O)N[C@H](C(=O)NCC#N)Cc4ccc(OCCN)c(c4)-c4cc3ccc4OCCN)c(C)n2)cc1 [Compound 183] | 0.13 (≈ 0.144 µM) | 0.0059 (≈ 0.00653 µM) | 0.62 | 0.063 (≈ 0.0697 µM) | – | – | – |
